The target in assay [1] is IDH1 R132C (Homo sapiens, UniProt O75874, R132C). Briefly: In vitro NADPH depletion assay for IDH1m R132C inhibitors. The class given is biochemical. As to conditions: enzyme, diaphorase/resazurin readout, read-out: IDH R132C IC50. The gist of the method:
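Homodimeric IDH1 R132C was preincubated with compound for 60 min at RT in phosphate buffer (50 mM potassium phosphate pH 6.5, 40 mM sodium carbonate, 5 mM MgCl2, 10% glycerol, 0.03% BSA). The αKG→2-HG reaction was started with substrate mix (20 µM NADPH, 1 mM αKG) and ran 90 min at RT. Remaining NADPH was read by diaphorase/resazurin fluorescence (Ex544/Em590).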
(The colour change of resazurin is a common sign of viable cells or microbes.)

The target of assay [2] is IDH1 R132H (Homo sapiens, UniProt O75874, R132H). Nature of the assay: In vitro NADPH depletion assay for IDH1m R132H inhibitors. To be noted: enzyme, diaphorase/resazurin readout, read-out: IDH R132H IC50. The class given is biochemical. The gist of the method: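 IDH1-R132H homodimer […] was preincubated with compound for 60 min at room temperature in 20 mM Tris-Cl pH 7.5, 150 mM NaCl, 10 mM MgCl2, 0.05% BSA, 2 mM b-mercaptoethanol. Substrate mix (NADPH, 5 mM alpha-ketoglutarate) then reacted for 90 min. Remaining NADPH was read by diaphorase/resazurin fluorescence at Ex544/Em590.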

The test system of assay [3] is HT1080 cells. Nature of the assay: Cellular assay, inhibition of 2-HG production (LC-MS) in HT1080 cells. The class given is cell-based. As to conditions: Homo sapiens, HT-1080, 48 hours, LC-MS of media. Summed up:
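HT1080 cells (5000/well) were incubated 48 hours with compound, 0.2% DMSO final. Medium 2-HG was quantified by LC-MS, and IC50 was taken as the concentration giving 50% reduction versus DMSO control. Viability was read by CellTiter-Glo luminescence at 72 hours.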

The structures appear in SMILES notation. pIC50: −log10 of the molar value. Bounds are passed on as bounds.

IDH1 R132H, sequence (O75874 whole entry R132H): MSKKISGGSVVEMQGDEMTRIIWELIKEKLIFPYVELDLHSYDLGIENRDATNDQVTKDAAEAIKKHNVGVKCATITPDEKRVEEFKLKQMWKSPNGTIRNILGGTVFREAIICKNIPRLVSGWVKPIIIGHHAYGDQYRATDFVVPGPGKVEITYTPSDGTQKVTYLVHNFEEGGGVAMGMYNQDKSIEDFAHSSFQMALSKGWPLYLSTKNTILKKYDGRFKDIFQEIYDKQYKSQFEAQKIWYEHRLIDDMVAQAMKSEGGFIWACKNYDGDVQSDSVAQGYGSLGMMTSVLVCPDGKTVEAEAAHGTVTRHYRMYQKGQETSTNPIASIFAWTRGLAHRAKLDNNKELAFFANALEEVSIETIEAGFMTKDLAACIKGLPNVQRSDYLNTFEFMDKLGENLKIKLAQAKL
IDH1 R132C, sequence (O75874 whole entry R132C): as the sequence (O75874 whole entry R132H) above, with H132C counted along it

One may read the pIC50 as the IC50 on a negative log10 scale, so that one unit is a factor of ten. With `COC(=O)N1C[C@H](OCCO)C[C@H]1C(=O)N(c1cccc(F)c1)[C@H](C(=O)NC1CC(F)(F)C1)c1ccccc1Cl` [Compound 90], the pIC50 in assay [1] is at least 7.00; in assay [2], at least 7.00; in assay [3], 6.30 to 7.00.
As for `COC(=O)N1CC[C@H](O)[C@H]1C(=O)N(c1cccc(F)c1)[C@H](C(=O)NC1CC(F)(F)C1)c1ccccc1Cl` [Compound 91], the pIC50 in assay [1] is 6.30 to 7.00; in assay [2], at least 7.00; in assay [3] it was 6.30 to 7.00.
For `COC(=O)NCC(=O)N(c1cccc(F)c1)C(C(=O)NC1CCC(F)(F)CC1)c1ccccc1Cl` (stereo not drawn) [Compound 92], the results for the negative logarithm of the IC50 (pIC50) in assay [1], in assay [2] and in assay [3] were at least 7.00, at least 7.00 and 6.30 to 7.00, respectively.
Consider `CC(C)(C)OC(=O)NCC(=O)N(c1cccc(F)c1)C(C(=O)NC1CCC(F)(F)CC1)c1ccccc1Cl` (stereo not drawn) [Compound 93], for which the pIC50 in assay [1] was 6.30 to 7.00; in assay [2], 6.30 to 7.00; in assay [3] it was 5.70 to 6.00.
On to `COC(=O)N(C)CC(=O)N(c1cccc(F)c1)C(C(=O)NC1CC(F)(F)C1)c1ccccc1Cl` (stereo not drawn) [Compound 96], for which the pIC50 in assay [1] was 6.30 to 7.00; in assay [2], at least 7.00; in assay [3] it was 6.00 to 6.30.
Taken in the same sequence, the figures for `COC(=O)NCC(=O)N(c1cccc(F)c1)[C@H](C(=O)N[C@H]1CCC(F)(F)C1)c1ccccc1Cl` [Compound 97] were 6.30 to 7.00, 6.30 to 7.00 and 6.00 to 6.30.
For `COC(=O)NCC(=O)N(c1cccc(F)c1)[C@H](C(=O)N[C@@H]1CCC(F)(F)C1)c1ccccc1Cl` [Compound 98] the same measures were 6.30 to 7.00, 6.30 to 7.00 and 5.70 to 6.00.
Taken in the same sequence, the figures for `O=C(NC1CC(F)(F)C1)[C@H](c1ccccc1Cl)N(C(=O)[C@@H]1C[C@@H](O)CN1c1ncccn1)c1cccc(F)c1` [Compound 100, (2S,4R)—N—((S)-1-(2-chlorophenyl)-2-(3,3-difluorocyclobutyl-amino)-2-oxoethyl)-N-(3-fluorophenyl)-4-hydroxy-1-(pyrimidin-2-yl)pyrrolidine-2-carbox-amide] were at least 7.00, at least 7.00 and 6.30 to 7.00.
Take `COC(=O)N[C@@H](CO)C(=O)N(c1cccc(F)c1)C(C(=O)NC1CCC(F)(F)CC1)c1ccccc1Cl` (stereo partly drawn) [Compound 101]: the figures for the pIC50 in assay [1], in assay [2] and in assay [3] were 6.30 to 7.00, 6.30 to 7.00 and 5.70 to 6.00, respectively.
Regarding `COC(=O)N1CC[C@H]1C(=O)N(c1cccc(F)c1)[C@H](C(=O)NC1CC(F)(F)C1)c1ccccc1Cl` [Compound 106], the pIC50 in assay [1] is 6.30 to 7.00; in assay [2], at least 7.00; in assay [3], 6.30 to 7.00.
`O=C1C[C@@H](C(=O)N(c2cccc(F)c2)[C@H](C(=O)NC2CC(F)(F)C2)c2ccccc2Cl)N(c2ncccn2)C1` [Compound 107]: the pIC50 in assay [1], in assay [2] and in assay [3] was at least 7.00 in each case.
Take `O=C(NC1CC(F)(F)C1)[C@@H](c1ccccc1Cl)N(C(=O)[C@H](CO)Nc1ncccn1)c1cccc(F)c1` [Compound 108]: the figures for the pIC50 in assay [1], in assay [2] and in assay [3] were at least 7.00, 6.30 to 7.00 and 6.30 to 7.00, respectively.
`O=C(NC1CC(F)(F)C1)[C@H](c1ccccc1Cl)N(C(=O)[C@H](CO)Nc1ncccn1)c1cccc(F)c1` [Compound 109]: the pIC50 in assay [1], in assay [2] and in assay [3] was at least 7.00 in each case.
Regarding `C[C@H]1CC[C@@H](C(=O)N(c2cccc(F)c2)[C@@H](C(=O)NC2CCC(F)(F)CC2)c2ccccc2Cl)N1c1ncccn1` [Compound 110, (2S,5S)—N—((R)-1-(2-chlorophenyl)-2-(4,4-difluorocyclohexylamino)-2-oxoethyl)-N-(3-fluorophenyl)-5-methyl-1-(pyrimidin-2-yl)pyrrolidine-2-carboxamide], the pIC50 in assay [1] is at least 7.00; in assay [2] it was at least 7.00; in assay [3], 6.30 to 7.00.

(Values after US20160304556A1, “[…] ACTIVE COMPOUNDS AND THEIR METHODS OF USE” (AGIOS PHARMACEUTICALS, INC, priority 2012, published 2016).)
